Results reported in PubChem BioAssay (NCI).
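Following 48 hours of exposure in 96-well plates, responses at five concentrations were used to interpolate endpoints linearly. TGI: concentration producing complete growth inhibition.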

Tests used:
Assay in all cases: NCI-60 cell line screen, 48 h
786-0 renal = tested on: 786-0 renal
A549 NSCLC = tested on: A549 NSCLC
ACHN renal = tested on: ACHN renal
BT-549 breast = tested on: BT-549 breast
CAKI-1 renal = tested on: CAKI-1 renal
CCRF-CEM leukemia = tested on: CCRF-CEM leukemia
COLO 205 colon = tested on: COLO 205 colon
DU-145 prostate = tested on: DU-145 prostate
EKVX NSCLC = tested on: EKVX NSCLC
HCT-116 colon = tested on: HCT-116 colon
HCT-15 colon = tested on: HCT-15 colon
HL-60(TB) leukemia = tested on: HL-60(TB) leukemia
HOP-62 NSCLC = tested on: HOP-62 NSCLC
HOP-92 NSCLC = tested on: HOP-92 NSCLC
HS 578T breast = tested on: HS 578T breast
HT29 colon = tested on: HT29 colon
IGROV1 ovarian = tested on: IGROV1 ovarian
K-562 leukemia = tested on: K-562 leukemia
KM12 colon = tested on: KM12 colon
LOX IMVI melanoma = tested on: LOX IMVI melanoma
M14 melanoma = tested on: M14 melanoma
MALME-3M melanoma = tested on: MALME-3M melanoma
MCF7 breast = tested on: MCF7 breast
MDA-MB-231 breast = tested on: MDA-MB-231 breast
MDA-MB-435 = tested on: MDA-MB-435
MDA-N = tested on: MDA-N
MOLT-4 leukemia = tested on: MOLT-4 leukemia
NCI-H226 lung = tested on: NCI-H226 lung
NCI-H23 lung = tested on: NCI-H23 lung
NCI-H460 lung = tested on: NCI-H460 lung
NCI-H522 lung = tested on: NCI-H522 lung
NCI/ADR-RES ovarian = tested on: NCI/ADR-RES ovarian
OVCAR-3 ovarian = tested on: OVCAR-3 ovarian
OVCAR-4 ovarian = tested on: OVCAR-4 ovarian
OVCAR-5 ovarian = tested on: OVCAR-5 ovarian
OVCAR-8 ovarian = tested on: OVCAR-8 ovarian
PC-3 prostate = tested on: PC-3 prostate
RPMI-8226 leukemia = tested on: RPMI-8226 leukemia
RXF 393 renal = tested on: RXF 393 renal
SF-268 CNS = tested on: SF-268 CNS
SF-295 CNS = tested on: SF-295 CNS
SF-539 CNS = tested on: SF-539 CNS
SK-MEL-2 melanoma = tested on: SK-MEL-2 melanoma
SK-MEL-28 melanoma = tested on: SK-MEL-28 melanoma
SK-MEL-5 melanoma = tested on: SK-MEL-5 melanoma
SK-OV-3 ovarian = tested on: SK-OV-3 ovarian
SN12C renal = tested on: SN12C renal
SNB-19 CNS = tested on: SNB-19 CNS
SNB-75 CNS = tested on: SNB-75 CNS
SR leukemia = tested on: SR leukemia
SW-620 colon = tested on: SW-620 colon
T-47D breast = tested on: T-47D breast
TK-10 renal = tested on: TK-10 renal
U251 CNS = tested on: U251 CNS
UACC-257 melanoma = tested on: UACC-257 melanoma
UACC-62 melanoma = tested on: UACC-62 melanoma
HCC-2998 colon = tested on: HCC-2998 colon
UO-31 renal = tested on: UO-31 renal

**Q.** What does the source list for `Cc1nc2sc3ccccc3n2c(=O)c1N=Nc1ccc(Cl)cc1`?
**A.** TGI (786-0 renal): > 100 µM; TGI (A549 NSCLC): > 100 µM; TGI (ACHN renal): > 100 µM; TGI (BT-549 breast): > 100 µM; TGI (CAKI-1 renal): > 100 µM; TGI (CCRF-CEM leukemia): > 100 µM; TGI (COLO 205 colon): > 100 µM; TGI (DU-145 prostate): > 100 µM; TGI (EKVX NSCLC): > 100 µM; TGI (HCT-116 colon): > 100 µM; TGI (HCT-15 colon): > 100 µM; TGI (HL-60(TB) leukemia): > 100 µM; TGI (HOP-62 NSCLC): > 100 µM; TGI (HOP-92 NSCLC): > 100 µM; TGI (HS 578T breast): > 100 µM; TGI (HT29 colon): > 100 µM; TGI (IGROV1 ovarian): > 100 µM; TGI (K-562 leukemia): > 100 µM; TGI (KM12 colon): > 100 µM; TGI (LOX IMVI melanoma): > 100 µM; TGI (M14 melanoma): > 100 µM; TGI (MALME-3M melanoma): > 100 µM; TGI (MCF7 breast): > 100 µM; TGI (MDA-MB-231 breast): > 100 µM; TGI (MDA-MB-435): > 100 µM; TGI (MDA-N): > 100 µM; TGI (MOLT-4 leukemia): > 100 µM; TGI (NCI-H226 lung): > 100 µM; TGI (NCI-H23 lung): > 100 µM; TGI (NCI-H460 lung): > 100 µM; TGI (NCI-H522 lung): > 100 µM; TGI (NCI/ADR-RES ovarian): > 100 µM; TGI (OVCAR-3 ovarian): > 100 µM; TGI (OVCAR-4 ovarian): > 100 µM; TGI (OVCAR-5 ovarian): > 100 µM; TGI (OVCAR-8 ovarian): > 100 µM; TGI (PC-3 prostate): > 100 µM; TGI (RPMI-8226 leukemia): > 100 µM; TGI (RXF 393 renal): > 100 µM; TGI (SF-268 CNS): > 100 µM; TGI (SF-295 CNS): > 100 µM; TGI (SF-539 CNS): > 100 µM; TGI (SK-MEL-2 melanoma): > 100 µM; TGI (SK-MEL-28 melanoma): > 100 µM; TGI (SK-MEL-5 melanoma): > 100 µM; TGI (SK-OV-3 ovarian): > 100 µM; TGI (SN12C renal): > 100 µM; TGI (SNB-19 CNS): > 100 µM; TGI (SNB-75 CNS): > 100 µM; TGI (SR leukemia): > 100 µM; TGI (SW-620 colon): > 100 µM; TGI (T-47D breast): > 100 µM; TGI (TK-10 renal): > 100 µM; TGI (U251 CNS): > 100 µM; TGI (UACC-257 melanoma): > 100 µM; TGI (UACC-62 melanoma): > 100 µM

**Q.** How did the TGI (786-0 renal) turn out when `Cn1c2ccccc2c(=NNc2cccc(C(=O)O)c2)c2ccccc21` was run?
**A.** 52 µM

**Q.** What about the TGI (A549 NSCLC) of the same compound?
**A.** 27.3 µM

**Q.** What about the TGI (ACHN renal) of the same compound?
**A.** 35.5 µM

**Q.** What about the TGI (BT-549 breast) of the same compound?
**A.** 62.8 µM

**Q.** What about the TGI (CAKI-1 renal) of the same compound?
**A.** 73.3 µM

**Q.** What about the TGI (CCRF-CEM leukemia) of the same compound?
**A.** 25.6 µM

**Q.** And the TGI (COLO 205 colon)?
**A.** 28.5 µM

**Q.** What about the TGI (DU-145 prostate) of the same compound?
**A.** 47.8 µM

**Q.** What about the TGI (EKVX NSCLC) of the same compound?
**A.** 28.7 µM

**Q.** What about the TGI (HCC-2998 colon) of the same compound?
**A.** 14.9 µM

**Q.** What about the TGI (HCT-116 colon) of the same compound?
**A.** 28.2 µM

**Q.** What about the TGI (HCT-15 colon) of the same compound?
**A.** 51.4 µM

**Q.** And the TGI (HL-60(TB) leukemia)?
**A.** 33.5 µM

**Q.** What about the TGI (HOP-62 NSCLC) of the same compound?
**A.** 47.8 µM

**Q.** And the TGI (HOP-92 NSCLC)?
**A.** 51.2 µM

**Q.** And the TGI (HS 578T breast)?
**A.** 64.7 µM

**Q.** And the TGI (HT29 colon)?
**A.** 14.7 µM

**Q.** What about the TGI (IGROV1 ovarian) of the same compound?
**A.** 66.2 µM

**Q.** And the TGI (K-562 leukemia)?
**A.** 13.8 µM

**Q.** And the TGI (KM12 colon)?
**A.** 47.5 µM

**Q.** And the TGI (LOX IMVI melanoma)?
**A.** 17.9 µM

**Q.** And the TGI (M14 melanoma)?
**A.** 39.1 µM

**Q.** What about the TGI (MALME-3M melanoma) of the same compound?
**A.** 38.3 µM

**Q.** What about the TGI (MCF7 breast) of the same compound?
**A.** 11.7 µM

**Q.** And the TGI (MDA-MB-231 breast)?
**A.** 41 µM

**Q.** And the TGI (MDA-MB-435)?
**A.** 27.1 µM

**Q.** What about the TGI (MDA-N) of the same compound?
**A.** 31.3 µM

**Q.** What about the TGI (MOLT-4 leukemia) of the same compound?
**A.** 22.7 µM

**Q.** What about the TGI (NCI-H226 lung) of the same compound?
**A.** 48.6 µM

**Q.** What about the TGI (NCI-H23 lung) of the same compound?
**A.** 32 µM

**Q.** What about the TGI (NCI-H460 lung) of the same compound?
**A.** 22 µM

**Q.** What about the TGI (NCI-H522 lung) of the same compound?
**A.** 21 µM

**Q.** And the TGI (NCI/ADR-RES ovarian)?
**A.** 67.7 µM

**Q.** What about the TGI (OVCAR-3 ovarian) of the same compound?
**A.** 11.9 µM

**Q.** And the TGI (OVCAR-4 ovarian)?
**A.** 40.3 µM

**Q.** And the TGI (OVCAR-5 ovarian)?
**A.** 41.6 µM

**Q.** And the TGI (OVCAR-8 ovarian)?
**A.** 53.3 µM

**Q.** What about the TGI (PC-3 prostate) of the same compound?
**A.** 23.6 µM

**Q.** What about the TGI (RPMI-8226 leukemia) of the same compound?
**A.** 28.3 µM

**Q.** And the TGI (RXF 393 renal)?
**A.** 22 µM

**Q.** And the TGI (SF-268 CNS)?
**A.** 39 µM

**Q.** What about the TGI (SF-295 CNS) of the same compound?
**A.** 58.5 µM

**Q.** And the TGI (SF-539 CNS)?
**A.** 46.9 µM

**Q.** And the TGI (SK-MEL-2 melanoma)?
**A.** 35.4 µM

**Q.** And the TGI (SK-MEL-28 melanoma)?
**A.** 35.7 µM

**Q.** And the TGI (SK-MEL-5 melanoma)?
**A.** 28.9 µM

**Q.** What about the TGI (SK-OV-3 ovarian) of the same compound?
**A.** 49.6 µM

**Q.** What about the TGI (SN12C renal) of the same compound?
**A.** 30.3 µM

**Q.** And the TGI (SNB-19 CNS)?
**A.** > 100 µM

**Q.** What about the TGI (SNB-75 CNS) of the same compound?
**A.** 54 µM

**Q.** What about the TGI (SW-620 colon) of the same compound?
**A.** 35.5 µM

**Q.** And the TGI (T-47D breast)?
**A.** 40.9 µM

**Q.** What about the TGI (TK-10 renal) of the same compound?
**A.** 59.2 µM

**Q.** And the TGI (U251 CNS)?
**A.** 28.7 µM

**Q.** What about the TGI (UACC-257 melanoma) of the same compound?
**A.** 58.6 µM

**Q.** What about the TGI (UACC-62 melanoma) of the same compound?
**A.** 39.8 µM

**Q.** And the TGI (UO-31 renal)?
**A.** 46.3 µM
